Source: patent US10588919B2, “Materials and methods for the treatment of vascular disease” (THE UNIVERSITY COURT OF THE UNIVERSITY OF EDINBURGH, priority 2015, dated 2020)

What was measured:
Format in all cases: cell-based, human
[1] = test system: LncRNA 2 (SMILR) expression; experiment: MEKK1 and p38 inhibitor studies: LncRNA 2 (SMILR) expression by qRT-PCR in IL1α/PDGF-stimulated HSVSMC; details: 24 h; for LncRNA 2 expression in the presence of IL1 and PDGF: HSVSMC, 60 minute pre-treatment, 10, 15 and 20 μM AZD6244, 5, 10 and 20 uM SB 203580; for induction of SMILR expression in response to PDGF and IL1α: VSMC, 60 min pre-treatment, AZD6244 5, 10 or 15 μM, SB203580
Experimental: For gene expression analysis, cDNA for mRNA analysis was obtained from total RNA using the Multiscribe Reverse Transcriptase (Life technologies, UK). qRT-PCR was performed using Power SYBR green (life technologies, UK) with custom PCR primers (Eurofins, MWG, Ebersberg, Germany) the specificity of these primers was confirmed by performing a melting curve and running their PCR produce on a gel (Table 1-primer sequences). Ubiquitin C (UBC) was selected as housekeeping gene due to its stability across all groups studied. Fold-changes were calculated using the 2^-ΔΔCt method (Livak and Schmittgen 2001-http://www.ncbi.nlm.nih.gov/pubmed/11846609; analysis of relative gene expression data using real-time quantitative PCR and the 2(-Delta Delta C(T)) method. Methods 2001;25;402-8). For inhibitor studies, […] were plated at 1×10^5 cells in 6 well plates and quiesced for 48 h. […] Cells were then stimulated with either 0.2% media or a combination of IL1α and PDGF for 24 hours for RNA quantification or western blot analysis.

SMILR (LncRNA 2) = experiment: dsiRNA-mediated knockdown of SMILR in HSVSMC, qRT-PCR
Experimental: (§1) For gene expression analysis, cDNA for mRNA analysis was obtained from total RNA using the Multiscribe Reverse Transcriptase (Life technologies, UK). qRT-PCR was performed using Power SYBR green (life technologies, UK) with custom PCR primers (Eurofins, MWG, Ebersberg, Germany) the specificity of these primers was confirmed by performing a melting curve and running their PCR produce on a gel (Table 1—primer sequences). Ubiquitin C (UBC) was selected as housekeeping gene due to its stability across all groups studied. Fold-changes were calculated using the 2^−ΔΔCt method (Livak and Schmittgen 2001—http://www.ncbi.nlm.nih.gov/pubmed/11846609; analysis of relative gene expression data using real-time quantitative PCR and the 2(-Delta Delta C(T)) method. Methods 2001;25;402-8). […] Following the 48 stimulation cells were RNA extracted as described earlier or fixed in 70% ethanol for EdU FACs analysis. EdU incorporation was visualized using Click-iT Alexa Fluor 594 according to the manufacturers protocol (Invitrogen).

HSVSMC proliferation = experiment: EdU incorporation (proliferation) of HSVSMC stimulated with IL1α/PDGF
[2] = test system: interferon pathway (OAS1, IRF7); experiment: qRT-PCR of interferon response genes OAS1 and IRF7 after dsiRNA; details: dsiRNA off target effects
Experimental: For gene expression analysis, cDNA for mRNA analysis was obtained from total RNA using the Multiscribe Reverse Transcriptase (Life technologies, UK). qRT-PCR was performed using Power SYBR green (life technologies, UK) with custom PCR primers (Eurofins, MWG, Ebersberg, Germany) the specificity of these primers was confirmed by performing a melting curve and running their PCR produce on a gel (Table 1—primer sequences). Ubiquitin C (UBC) was selected as housekeeping gene due to its stability across all groups studied. Fold-changes were calculated using the 2^−ΔΔCt method (Livak and Schmittgen 2001—http://www.ncbi.nlm.nih.gov/pubmed/11846609; analysis of relative gene expression data using real-time quantitative PCR and the 2(-Delta Delta C(T)) method. Methods 2001;25;402-8).

HAS2 = HAS2 expression by qRT-PCR in HSVSMC; details: SMILR knockdown
Experimental: as §1

HAS2-AS1 = HAS2-AS1 expression by qRT-PCR in HSVSMC; details: SMILR knockdown
Experimental: as §1

ZHX2 = ZHX2 expression by qRT-PCR in HSVSMC; details: SMILR knockdown
Experimental: as §1

HAS1 = HAS1 expression by qRT-PCR in HSVSMC; details: SMILR knockdown
Experimental: as §1

HAS3 = HAS3 expression by qRT-PCR in HSVSMC; details: SMILR knockdown
Experimental: as §1

SMILR = experiment: RNA-FISH of SMILR transcripts in HSVSMC
Description: Custom RNA-FISH tiled probe sets were generated to all exons of […] FISH utilises “branch tree” technology. Briefly, a target specific probe set, containing 40 oligo probes, hybridises to the target mRNA as 20 oligo pairs. Each oligo pair forms a required platform for assembly of the signal amplification structure (tree) through a series of sequential hybridisation steps. Each fully assembled structure, covers a space of 40-50 nt of the target RNA, and has the capacity for 400-fold signal amplification. Therefore, a typical RNA probe set (containing 20 oligo pairs) has the capacity to generate 8,000-fold signal amplification. Due to this technology the company confirms single-molecule RNA sensitivity, thus each fluorescent signal corresponds to an individual lncRNA molecule. Control SNORD3 and UBC were used as housekeepers to determine spatial location of LncRNA2 (Panomics, Affymetrix). RNA-FISH was performed according to manufacturer's instructions (ViewRNATM cell FISH) with minor modifications for both cell and tissue experiments. For cellular analysis […] were grown on 16mm coverslips to 80% confluency, washed in PBS and fixed in 4% paraformaldehyde supplemented with 1% glacial acetic acid. Following detergent QS permeablisation and 1:6000 protease digest coverslips were incubated with a combination of UBC and LncRNA 2 probe sets or UBC. […]

Row | Compound | LncRNA 2 expression in the presence of IL1 and PDGF [1] | induction of SMILR expression in response to PDGF and IL1α [1] | decrease in SMILR expression compared to dsiControl (SMILR (LncRNA 2); 25 nM dsiRNA, IL1α/PDGF 48 h) | LncRNA 2 (SMILR) expression after dsiRNA transfection (SMILR (LncRNA 2); IL1/PDGF, qRT-PCR) | VSMC proliferation reduced (EdU incorporation) (HSVSMC proliferation; SMILR knock down with dsiRNA, IL1/PDGF 48 h, vs Si Control) | SMC proliferation following stimulation with IL1/PDGF (EdU incorporation) (HSVSMC proliferation; dsiRNA mediated knockdown of LncRNA 2) | effect on the interferon pathway (response genes OAS1 and IRF7) [2] | HAS2 mRNA levels (HAS2) | HAS2 mRNA levels (HAS2; listed as SMILR siRNA) | HAS2-AS1 lncRNA expression (HAS2-AS1) | ZHX2 gene expression (ZHX2) | HAS1 expression (HAS1) | HAS3 expression (HAS3) | SMILR transcripts (RNA-FISH) (SMILR)
1 | Cn1cnc2c(F)c(Nc3ccc(Br)cc3Cl)c(C(=O)NOCCO)cc21 [AZD6244] | completely inhibited | prevented the induction | – | – | – | – | – | – | – | – | – | – | – | –
2 | C[S+]([O-])c1ccc(-c2nc(-c3ccncc3)c(-c3ccc(F)cc3)[nH]2)cc1 (stereo not shown) [SB 203580] | completely inhibited | dose-dependent reduction | – | – | – | – | – | – | – | – | – | – | – | –
3 | DsiRNA SMILR: Double stranded dicer substrate siRNA targeting LncRNA 2 (SMILR); probably sense SEQ ID NO: 1, antisense SEQ ID NO: 2 (sense CCAUAAUUUACAUGGAUGUU; antisense UUCCAAACAUCCAUGUAAAUUAUGGAA; listed as RNA, chemistry not fully specified) | – | – | 75±24% | significant decrease | 56±15% | inhibited | No effect | significantly inhibits | significantly altered | no change | no change | no effect | no effect | decrease
